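Cultured in 96-well plates, cells were exposed to test compound for 48 hours across five concentrations. Abbreviation: GI50, concentration required for 50% inhibition of growth.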 Active and inactive are the calls of the source. No stated cut-off is given here; in the data, active = GI50 up to about 1.1 µM and inactive = higher.
Tests used:
Assay in all cases: NCI tumour cell line growth inhibition, 48 h
[1] = tested on: KM12
[2] = tested on: ACHN
[3] = tested on: K562
[4] = tested on: CCRF-CEM
[5] = tested on: OVCAR-3
[6] = tested on: HOP-62
[7] = tested on: UO-31
[8] = tested on: Malme-3M
[9] = tested on: HL-60
[10] = tested on: NCI-H460
[11] = tested on: SF-268
[12] = tested on: RPMI-8226
[13] = tested on: SW-620
[14] = tested on: SK-OV-3
[15] = tested on: SK-MEL-2
[16] = tested on: CAKI-1
[17] = tested on: COLO 205
[18] = tested on: MCF7
[19] = tested on: PC-3

Measured: GI50

CCOc1ccc(/N=C\c2cc(OC)c(OC)c(OC)c2)cc1
inactive: [1] > 100 µM | [2] > 100 µM | [3] 52.5 µM | [4] > 100 µM | [5] > 100 µM | [6] > 100 µM | [7] > 100 µM | [8] > 100 µM | [9] > 100 µM | [10] > 100 µM | [11] > 100 µM | [12] 18.2 µM | [13] 14.9 µM | [14] > 100 µM | [15] > 100 µM | [16] > 100 µM

[O-][S+]1Nc2cccc(C(F)(F)F)c2S1 (centres undefined)
inactive: [1] 21.4 µM | [2] 37.2 µM | [3] 31.3 µM | [4] 6.78 µM | [5] 33.5 µM | [6] 49.8 µM | [7] 19.1 µM | [8] 51.2 µM | [9] 7.66 µM | [10] 40.9 µM | [17] 19.8 µM | [11] 48 µM | [12] 29 µM | [13] 9.91 µM | [14] > 100 µM | [15] 24.3 µM | [16] 30.5 µM

CC1=C(/C(C)=N/NC(=O)C(N)=O)Sc2ccccc2N1
inactive: [1] > 100 µM | [2] > 100 µM | [3] > 100 µM | [4] > 100 µM | [5] > 100 µM | [6] > 100 µM | [7] > 100 µM | [8] > 100 µM | [9] > 100 µM | [10] > 100 µM | [17] > 100 µM | [11] > 100 µM | [12] > 100 µM | [13] > 100 µM | [14] > 100 µM | [15] > 100 µM | [16] > 100 µM

NC1=NNC2(C(N)=N1)c1ccccc1-c1ccccc12
inactive: [1] > 10 µM | [2] > 10 µM | [6] > 10 µM | [7] 5.13 µM | [8] > 10 µM | [9] > 10 µM | [10] > 10 µM | [17] > 10 µM | [11] > 10 µM | [12] > 10 µM | [18] > 10 µM | [13] > 10 µM | [14] > 10 µM | [19] > 10 µM | [16] > 10 µM

CC1=C(C(=O)Nc2cc(F)c(F)cc2F)C(c2ccc3c(c2)OCO3)C(C(=O)Nc2cc(F)c(F)cc2F)=C(C)N1
inactive: [1] 19.2 µM | [2] 19.1 µM | [3] 17.9 µM | [4] 19.5 µM | [5] 15.7 µM | [6] 16.8 µM | [7] 12.9 µM | [8] 23.3 µM | [9] 13.8 µM | [10] 25.2 µM | [17] 21.8 µM | [11] 23.3 µM | [12] 16 µM | [13] 33.5 µM | [14] 19.4 µM | [15] 18 µM | [16] 11.8 µM

O=C(c1ccc(Cl)cc1)c1ccc(OCCCCCCCCCCOc2ccc(C(=O)c3ccc(Cl)cc3)cc2)cc1
inactive: [1] > 100 µM | [2] > 100 µM | [3] > 100 µM | [4] > 100 µM | [5] > 100 µM | [6] > 100 µM | [7] > 100 µM | [8] > 100 µM | [9] > 100 µM | [10] > 100 µM | [17] > 100 µM | [11] > 100 µM | [12] > 100 µM | [13] > 100 µM | [14] > 100 µM | [15] > 100 µM | [16] > 100 µM

COc1cc2cc(OC)c3cc4c(cc3c2c(OC)c1OC)OCO4
inactive: [1] 14.2 µM | [2] 52.5 µM | [3] 9.46 µM | [4] 15 µM | [5] 41.5 µM | [6] 42.6 µM | [7] 29.4 µM | [8] 52.4 µM | [9] 15.3 µM | [10] 17.6 µM | [17] 19.6 µM | [11] > 51.1 µM | [12] 14.7 µM | [13] 18.6 µM | [14] > 64.9 µM | [15] 71 µM | [16] 33 µM

O=[N+]([O-])c1ccc(C2N3CCCCC3[C@@H]3c4[nH]c5ccccc5c4CCN23)cc1 (some centres undefined)
active: [8] < 0.01 µM
inactive: [2] 12.8 µM | [3] 7.82 µM | [4] 27.5 µM | [5] 18.4 µM | [6] 19.5 µM | [7] 16.1 µM | [9] 80.2 µM | [10] 19.2 µM | [17] 17.6 µM | [11] 15.4 µM | [12] 16.5 µM | [13] 22.6 µM | [14] 22.6 µM | [15] 16.9 µM | [16] 26.9 µM

COc1cc(C(=O)C/C(CCC(=O)Nc2ccccc2[N+](=O)[O-])=N\NC(N)=O)ccc1O
inactive: [1] > 100 µM | [2] > 100 µM | [3] > 100 µM | [4] > 100 µM | [5] > 100 µM | [6] > 100 µM | [7] > 100 µM | [8] > 100 µM | [9] > 100 µM | [10] > 100 µM | [17] > 100 µM | [11] > 100 µM | [12] > 100 µM | [13] > 100 µM | [14] > 100 µM | [15] > 100 µM | [16] > 100 µM

O=C(/C=C/c1ccc(Br)cc1)c1ccc(NCc2nc3ccccc3[nH]2)cc1
inactive: [1] 2.67 µM | [2] 17.5 µM | [3] 3.35 µM | [4] 4.76 µM | [5] 4.61 µM | [6] 22.2 µM | [7] 7.73 µM | [8] 25 µM | [9] 5.86 µM | [10] 8.22 µM | [17] 2.53 µM | [11] 8.18 µM | [12] 1.93 µM | [13] 2.96 µM | [14] 28.4 µM | [15] 17.6 µM | [16] 9.68 µM

O=C(CCc1ccccc1)NS(=O)(=O)c1ccccc1
inactive: [1] > 100 µM | [2] > 100 µM | [3] > 100 µM | [4] > 100 µM | [5] > 100 µM | [6] > 100 µM | [7] > 100 µM | [8] > 100 µM | [9] > 100 µM | [10] > 100 µM | [17] > 100 µM | [11] > 100 µM | [12] > 100 µM | [13] > 100 µM | [14] > 100 µM | [15] > 100 µM | [16] > 100 µM

COc1ccc2c(c1)CCN=C2Cc1ccccc1CCCl
inactive: [1] 23.1 µM | [2] 30.1 µM | [3] 18 µM | [4] 20.7 µM | [5] 33.9 µM | [6] 36.5 µM | [7] 16.5 µM | [9] 14.2 µM | [10] 15.4 µM | [17] 17.5 µM | [11] 21.8 µM | [12] 17.6 µM | [18] 26 µM | [13] 26.1 µM | [14] 39.3 µM | [19] 25.8 µM | [15] 25.5 µM | [16] 22.1 µM

CC(=O)Nc1ccc(-c2nnc(SCC(=O)Nc3ccccc3[N+](=O)[O-])o2)cc1
inactive: [1] > 100 µM | [2] > 100 µM | [3] 93.1 µM | [4] > 100 µM | [5] 34.4 µM | [6] > 100 µM | [7] 81.3 µM | [8] > 100 µM | [9] 52 µM | [10] > 100 µM | [17] > 100 µM | [11] > 100 µM | [12] > 100 µM | [13] > 100 µM | [14] > 100 µM | [15] > 100 µM | [16] > 100 µM

Oc1ccc2c(c1)-c1c(c3cc(O)ccc3n1CCN1CCOCC1)CC2
inactive: [1] 32.7 µM | [2] 30.5 µM | [3] 20 µM | [4] 22.8 µM | [5] 20.7 µM | [6] 19.5 µM | [7] 17.5 µM | [9] 23.2 µM | [17] 17.4 µM | [11] 44.8 µM | [12] 24.7 µM | [18] 18.7 µM | [13] 23 µM | [14] 23.9 µM | [19] 18.4 µM | [15] 17.6 µM | [16] 24.9 µM

CCCC(O)[C@@H](O)c1ccc2c(c1O)C(=O)c1c(OC)cccc1C2=O (some centres undefined)
inactive: [1] 35.6 µM | [2] 34.4 µM | [3] 34.3 µM | [4] 31.3 µM | [5] 34.8 µM | [6] 55.2 µM | [7] 28.2 µM | [8] 40.7 µM | [9] 18.4 µM | [10] 29 µM | [17] 20.9 µM | [11] 57.7 µM | [12] 5.73 µM | [13] 63.2 µM | [14] 24.1 µM | [15] 46.8 µM | [16] 27.8 µM

Cn1c2ccccc2c2[nH]cc3nc4ccccc4c-3c21
inactive: [1] 17 µM | [2] 20.4 µM | [3] 26.7 µM | [4] 30.8 µM | [5] 17.1 µM | [6] > 100 µM | [7] 13 µM | [8] > 100 µM | [9] 20.6 µM | [10] 15.5 µM | [17] 16.9 µM | [11] 22.8 µM | [12] 19.2 µM | [13] 24.7 µM | [14] 24.3 µM | [15] > 100 µM | [16] 25.1 µM

From ChEMBL document CHEMBL1201862, “PubChem BioAssay data set” (2004)
